Experimental data published in patent US20170190671A1, “BIS(ARYL)CATECHOL DERIVATIVES AS HERBICIDES” (E I DU PONT DE NEMOURS AND COMPANY, priority 2014, published 2017).

Tests used:
Assay type in all cases: in vivo
[1] = system: lambsquarters (Chenopodium album); experiment: Test C postemergence; conditions: Chenopodium album, post-emergence, 336 h, Postemergence, scale 0 to 100, read-out: Plant response rating, Lambsquarters
In short: (§1)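 Greenhouse test; preemergence to seeds in loam/sand soil, or postemergence spray to 2-18 cm, 1- to 4-leaf plants in peat/vermiculite medium; compound in non-phytotoxic solvent plus surfactant. Visual rating vs controls at 13-15 d, 0 = no effect, 100 = complete control.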

[2] = system: winter wheat (Triticum aestivum); experiment: Test C postemergence; conditions: Triticum aestivum, post-emergence, 336 h, Postemergence, scale 0 to 100, read-out: Plant response rating, Wheat
In short: as §1

[3] = system: morningglory (Ipomoea coccinea); experiment: Test C postemergence; conditions: Ipomoea, post-emergence, 336 h, Postemergence, scale 0 to 100, read-out: Plant response rating, Morningglory
In short: as §1

[4] = system: johnsongrass (Sorghum halepense); experiment: Test C postemergence; conditions: Sorghum halepense, post-emergence, 336 h, Postemergence, scale 0 to 100, read-out: Plant response rating, Johnsongrass
In short: as §1

[5] = system: galium (catchweed bedstraw, Galium aparine); experiment: Test C postemergence; conditions: Galium, post-emergence, 336 h, Postemergence, scale 0 to 100, read-out: Plant response rating, Galium
In short: as §1

[6] = system: chickweed (common chickweed, Stellaria media); experiment: Test C postemergence; conditions: Stellaria media, post-emergence, Postemergence, scale 0 to 100, read-out: Plant response rating, Chickweed
In short: as §1

[7] = system: blackgrass (Alopecurus myosuroides); experiment: Test C postemergence; conditions: Alopecurus myosuroides, post-emergence, 336 h, Postemergence, scale 0 to 100, read-out: Plant response rating, Blackgrass
In short: as §1

[8] = system: pigweed (Amaranthus retroflexus); experiment: Test C postemergence; conditions: Amaranthus retroflexus, post-emergence, 336 h, Postemergence, scale 0 to 100, read-out: Plant response rating, Pigweed
In short: as §1

[9] = system: ragweed (common ragweed, Ambrosia elatior); experiment: Test C postemergence; conditions: Ambrosia artemisiifolia, post-emergence, 336 h, Postemergence, scale 0 to 100, read-out: Plant response rating, Ragweed
In short: as §1

[10] = system: oilseed rape (Brassica napus); experiment: Test C postemergence; conditions: Brassica napus, post-emergence, Postemergence, scale 0 to 100, read-out: Plant response rating, Oilseed Rape
In short: as §1

[11] = system: yellow nutsedge (Cyperus esculentus); experiment: Test C postemergence; conditions: Cyperus, post-emergence, 336 h, Postemergence, scale 0 to 100, read-out: Plant response rating, Nutsedge, Yellow
In short: as §1

[12] = system: corn (Zea mays); experiment: Test C postemergence; conditions: Zea mays, post-emergence, 336 h, Postemergence, scale 0 to 100
In short: as §1

[13] = system: large (Lg) crabgrass (Digitaria sanguinalis); experiment: Test C postemergence; conditions: Digitaria sanguinalis, post-emergence, 336 h, Postemergence, scale 0 to 100, read-out: Plant response rating, Crabgrass, Large
In short: as §1

[14] = system: velvetleaf (Abutilon theophrasti); experiment: Test C postemergence; conditions: Abutilon theophrasti, post-emergence, Postemergence, scale 0 to 100, read-out: Plant response rating, Velvetleaf
In short: as §1

[15] = system: Italian ryegrass (Lolium multiflorum); experiment: Test C postemergence; conditions: Lolium multiflorum, post-emergence, 336 h, Postemergence, scale 0 to 100, read-out: Plant response rating, Ryegrass, Italian
In short: as §1

[16] = system: barnyardgrass (Echinochloa crus-galli); experiment: Test C postemergence; conditions: Echinochloa crus-galli, post-emergence, Postemergence, scale 0 to 100, read-out: Plant response rating, Barnyardgrass
In short: as §1

[17] = system: soybean (Glycine max); experiment: Test C postemergence; conditions: Glycine max, post-emergence, Postemergence, scale 0 to 100, read-out: Plant response rating, Soybean
In short: as §1

[18] = system: giant foxtail (Setaria faberii); experiment: Test C postemergence; conditions: Setaria faberi, post-emergence, 336 h, Postemergence, scale 0 to 100, read-out: Plant response rating, Foxtail, Giant
In short: as §1

[19] = system: winter wheat (Triticum aestivum); experiment: Test C preemergence; conditions: Triticum aestivum, pre-emergence, 336 h, scale 0 to 100, read-out: Plant response rating, Wheat
In short: as §1

[20] = system: oilseed rape (Brassica napus); experiment: Test C preemergence; conditions: Brassica napus, pre-emergence, scale 0 to 100, read-out: Plant response rating, Oilseed Rape
In short: as §1

[21] = system: large (Lg) crabgrass (Digitaria sanguinalis); experiment: Test C preemergence; conditions: Digitaria sanguinalis, pre-emergence, 336 h, scale 0 to 100, read-out: Plant response rating, Crabgrass, Large
In short: as §1

[22] = system: giant foxtail (Setaria faberii); experiment: Test C preemergence; conditions: Setaria faberi, pre-emergence, 336 h, scale 0 to 100, read-out: Plant response rating, Foxtail, Giant
In short: as §1

Fc1ccc(F)c(Oc2ncc(Cl)cn2)c1Oc1ncc(Cl)cn1 [Compound 34, 2,2′-[(3,6-difluoro-1,2-phenylene)bis(oxy)]bis[5-chloropyrimidine]]
pest or weed control at 16 g/ha ([1]; 16 g ai/ha): 55%
pest or weed control at 31 g/ha ([1]; 31 g ai/ha): 75%
pest or weed control at 62 g/ha ([1]; 62 g ai/ha): 70%
pest or weed control at 125 g/ha ([1]; 125 g ai/ha): 80%
plant injury at 31 g/ha ([2]; 31 g ai/ha): 0%
plant injury at 62 g/ha ([2]; 62 g ai/ha): 0%
plant injury at 125 g/ha ([2]; 125 g ai/ha): 0%
pest or weed control at 31 g/ha ([3]; 31 g ai/ha): 95%
pest or weed control at 62 g/ha ([3]; 62 g ai/ha): 90%
pest or weed control at 125 g/ha ([3]; 125 g ai/ha): 95%
pest or weed control at 16 g/ha ([4]; 16 g ai/ha): 5%
pest or weed control at 31 g/ha ([4]; 31 g ai/ha): 5%
pest or weed control at 62 g/ha ([4]; 62 g ai/ha): 10%
pest or weed control at 125 g/ha ([4]; 125 g ai/ha): 10%
pest or weed control at 16 g/ha ([5]; 16 g ai/ha): 80%
pest or weed control at 31 g/ha ([5]; 31 g ai/ha): 80%
pest or weed control at 62 g/ha ([5]; 62 g ai/ha): 85%
pest or weed control at 125 g/ha ([5]; 125 g ai/ha): 85%
pest or weed control at 16 g/ha ([6]; 16 g ai/ha): 50%
pest or weed control at 31 g/ha ([6]; 31 g ai/ha): 50%
pest or weed control at 62 g/ha ([6]; 62 g ai/ha): 80%
pest or weed control at 125 g/ha ([6]; 125 g ai/ha): 95%
pest or weed control at 16 g/ha ([7]; 16 g ai/ha): 0%
pest or weed control at 31 g/ha ([7]; 31 g ai/ha): 0%
pest or weed control at 62 g/ha ([7]; 62 g ai/ha): 0%
pest or weed control at 125 g/ha ([7]; 125 g ai/ha): 5%
pest or weed control at 31 g/ha ([8]; 31 g ai/ha): 80%
pest or weed control at 62 g/ha ([8]; 62 g ai/ha): 90%
pest or weed control at 125 g/ha ([8]; 125 g ai/ha): 90%
pest or weed control at 31 g/ha ([9]; 31 g ai/ha): 50%
pest or weed control at 62 g/ha ([9]; 62 g ai/ha): 60%
pest or weed control at 125 g/ha ([9]; 125 g ai/ha): 60%
plant injury at 31 g/ha ([10]; 31 g ai/ha): 50%
plant injury at 62 g/ha ([10]; 62 g ai/ha): 70%
plant injury at 125 g/ha ([10]; 125 g ai/ha): 70%
pest or weed control at 31 g/ha ([11]; 31 g ai/ha): 10%
pest or weed control at 62 g/ha ([11]; 62 g ai/ha): 10%
pest or weed control at 125 g/ha ([11]; 125 g ai/ha): 10%
Corn plant response rating (crop injury, 0 = no effect, 100 = complete kill) at 16 g/ha ([12]; 16 g ai/ha): 5%
Corn plant response rating (crop injury, 0 = no effect, 100 = complete kill) at 31 g/ha ([12]; 31 g ai/ha): 5%
Corn plant response rating (crop injury, 0 = no effect, 100 = complete kill) at 62 g/ha ([12]; 62 g ai/ha): 5%
Corn plant response rating (crop injury, 0 = no effect, 100 = complete kill) at 125 g/ha ([12]; 125 g ai/ha): 5%
pest or weed control at 16 g/ha ([13]; 16 g ai/ha): 0%
pest or weed control at 31 g/ha ([13]; 31 g ai/ha): 0%
pest or weed control at 62 g/ha ([13]; 62 g ai/ha): 5%
pest or weed control at 125 g/ha ([13]; 125 g ai/ha): 5%
pest or weed control at 31 g/ha ([14]; 31 g ai/ha): 60%
pest or weed control at 62 g/ha ([14]; 62 g ai/ha): 60%
pest or weed control at 125 g/ha ([14]; 125 g ai/ha): 65%
pest or weed control at 31 g/ha ([15]; 31 g ai/ha): 0%
pest or weed control at 62 g/ha ([15]; 62 g ai/ha): 0%
pest or weed control at 125 g/ha ([15]; 125 g ai/ha): 0%
pest or weed control at 16 g/ha ([16]; 16 g ai/ha): 5%
pest or weed control at 31 g/ha ([16]; 31 g ai/ha): 5%
pest or weed control at 62 g/ha ([16]; 62 g ai/ha): 10%
pest or weed control at 125 g/ha ([16]; 125 g ai/ha): 10%
plant injury at 31 g/ha ([17]; 31 g ai/ha): 70%
plant injury at 62 g/ha ([17]; 62 g ai/ha): 85%
plant injury at 125 g/ha ([17]; 125 g ai/ha): 40%
pest or weed control at 16 g/ha ([18]; 16 g ai/ha): 5%
pest or weed control at 31 g/ha ([18]; 31 g ai/ha): 5%
pest or weed control at 62 g/ha ([18]; 62 g ai/ha): 5%
pest or weed control at 125 g/ha ([18]; 125 g ai/ha): 25%
plant injury at 31 g/ha ([19]; 31 g ai/ha, preemergence): 0%
plant injury at 62 g/ha ([19]; 62 g ai/ha, preemergence): 15%
plant injury at 125 g/ha ([19]; 125 g ai/ha, preemergence): 10%
plant injury at 16 g/ha ([19]; Preemergence, 16 g ai/ha): 0%
plant injury at 31 g/ha ([20]; 31 g ai/ha, preemergence): 90%
plant injury at 62 g/ha ([20]; 62 g ai/ha, preemergence): 90%
plant injury at 125 g/ha ([20]; 125 g ai/ha, preemergence): 90%
plant injury at 16 g/ha ([20]; Preemergence, 16 g ai/ha): 30%
pest or weed control at 31 g/ha ([21]; 31 g ai/ha, preemergence): 85%
pest or weed control at 62 g/ha ([21]; 62 g ai/ha, preemergence): 98%
pest or weed control at 125 g/ha ([21]; 125 g ai/ha, preemergence): 100%
pest or weed control at 16 g/ha ([21]; Preemergence, 16 g ai/ha): 80%
pest or weed control at 31 g/ha ([22]; 31 g ai/ha, preemergence): 98%
pest or weed control at 62 g/ha ([22]; 62 g ai/ha, preemergence): 100%
pest or weed control at 125 g/ha ([22]; 125 g ai/ha, preemergence): 100%
pest or weed control at 16 g/ha ([22]; Preemergence, 16 g ai/ha): 70%
